Assay results taken from patent US20100247659A1, “PHENYLPHTHALIMIDE ANALOGS FOR TREATING DIABETIC MACULAR EDEMA” (Charlesson, LLC, priority 2007, published 2010).

Assays:
[1] = tested on: normal BN rats; experiment: Ocular toxicity, histological analysis of the retina; format: in vivo, rat; settings: 2 μg/eye intravitreal, 4 weeks
Method: Histological analysis of the retina: To test the potential ocular toxicity of Compound 4, 8 week old normal BN rats received an intravitreal injection of Compound 4 (2.0 μg/eye, 5 μl/eye of 0.4 mg/ml in BN rat serum) or equal amount of BN rat serum, respectively. At various intervals after injection, the animals were sacrificed. The eyes then were removed, fixed in 4% formaldehyde, embedded in paraffin, and cut into 6-μm sections containing the whole retina. Paraffin-embedded sections were stained with hematoxylin-eosin (HE) and were examined.
Possible toxicities of CLT-033 were also examined using pathohistological examination 4 weeks after the drug administration. Retinal cross sections stained with H&E were examined under a light microscope.
Eight weeks old BN rats were received an intravitreal injection of Compound 4 (2.0 μg/eye, 5 μl/eye 0.4 mg/ml in BN rat serum) or equal amount of BN rat serum respectively (n=6). ERG was performed prior to study initiation and 1, 2, 3 and 4 weeks after the injection. Data shown no dramatic change in the a-wave and b-wave amplitudes in Compound 4-injected rats compared to vehicle-injected rats (FIG. 18A-18C). The animals were sacrificed 4 weeks after injection. The eye sections were observed under microscope with HE staining.

[2] = tested on: STZ-diabetic rats; settings: cited from earlier work

CC(C)c1cccc(C(C)C)c1N1C(=O)c2ccc(N)cc2C1=O [Compound 4]
retinal morphology, H&E sections [1]: No apparent morphological change or immunoresponse

O=C1CCC(N2C(=O)c3ccccc3C2=O)C(=O)N1 (stereo not drawn) [thalidomide]
VEGF in ocular fluid [2]: blocked the increase of VEGF in ocular fluid
thickening of retinal capillary basement membrane [2]: inhibited the thickening of retinal capillary basement membrane
